A word on the LC50: it is the concentration that kills 50% of the test population. Read a low LC50 as a more lethal substance. One may read the IC50 as the concentration that inhibits the measured activity by half. Broadly, the viability is a read-out of living cells in per cent, often relative to untreated cells.

These results are taken from article PMC10743895, “Synthesis of 1,3,4-Thiadiazole Derivatives and Their Anticancer Evaluation” (International Journal of Molecular Sciences, 2023).

Structures are written as SMILES. Where two headings read alike, the source gives them in different places. Some results are limits rather than exact numbers.

The subject of series [1] is Daphnia magna. Put plainly: Daphnia magna toxicity assay. It is filed as in vivo. As to conditions: up to 200 µM. As for the experimental part: (§1) The Daphnia magna bioassay results are presented in Table 3 as the maximum average percentage of lethality (L%) registered for each compound and the median lethal concentration (LC50) if the values permitted its calculation.
(§2) Daphnia magna Straus is parthenogenetically maintained at ‘Carol Davila’ University’s Department of Pharmaceutical Botany and Cell Biology. The culture was consistently maintained at a temperature of 25 °C, with a 16-h light and 8-h dark photoperiod. To ensure consistency, young daphnids were carefully chosen based on their size and kept in an artificial medium for 24 h prior to the assessment. The bioassay involved 10 daphnids per replicate, using tissue culture plates with 12 wells from Greiner Bio-One. The experimental procedure followed the protocol described in previous studies.
(§3) Each determination was carried out in duplicate.

Series [2] in a line: Daphnia magna toxicity assay. It is filed as in vivo. Conditions: Daphnia magna, in vivo; 48 h. Here is the method: as §1, §2, §3
Series [3] deals with HUVEC normal cells. Put plainly: MTS cell viability assay, HUVEC normal cells. It is filed as cell-based, human. Conditions: Homo sapiens, HUVEC. As for the experimental part: (§4) To determine the optimal working concentration, dose-effect curves were made for each compound in the range of concentrations between 6.25 and 400 μM.
(§5) LoVo (human colorectal adenocarcinoma) human cancer cell line and HUVEC normal cells were purchased from American Type Culture Collection (ATCC). The MCF-7 human breast adenocarcinoma cell line was provided from European Collection of Authenticated Cell Cultures (ECACC). HUVEC normal cells, isolated from the vascular endothelium of an umbilical cord, were used as a reference. Adherent cells were maintained in culture in Dulbecco’s modified Eagle medium/nutrient mixture F-12 (DMEM:F12) with 2 mM of L-glutamine, 10% fetal bovine serum, 100 units/mL of penicillin and 100 μg/mL of streptomycin, and incubated at 37 °C in a 5% CO2-humidified atmosphere. After 24 h, adherent cells were treated with different concentrations of the compounds for different periods of time. Cis-Pt and DOX, conventional oncology drugs used in cancer treatments, can be used as a positive control of the experiments. […] Then, cells were detached with a nonenzymatic solution of phosphate-buffered saline (PBS)/1 mM EDTA and washed twice in PBS.
(§6) The study utilized a colorimetric assay based on MTS (chemically known as 3-(4,5-dimethylthiazol-2-yl)-5-(3-carboxymethoxyphenyl)-2-(4-sulfophenyl)-2H-tetrazolium) and called CellTiter 96 Aqueous One Solution Cell proliferation Assay (Promega, Madison, WI, USA) in order to measure cell viability. The assay was performed in triplicate in 96-well microtiter plates with a flat bottom (Falcon). A number of 1 × 10^4 cells/well were cultured in 100 μL for 24 h, culture supernatants were discarded, and then cells were treated for 24 and 48 h with increasing concentrations of the tested compound. After the end of the incubation time, 20 μL of the reagent containing MTS and PES (phenazine ethosulfate) was added in each well. Plates were incubated for 4 h at 37 °C, with mild agitation every 15 min. The reduction in the tetrazolium compound to formazan was spectrophotometrically measured at λ = 492 nm using a Dynex plate reader (DYNEX Technologies MRS, Chantilly, VA, USA). The percentage of viability compared to untreated cells (considered 100% viable) was calculated with the formula:(1) Cell viability (%)=Absorbance treated cells−Absorbance culture medium/Absorbance untreated cells−Absorbance culture medium×100
(§7) The cell viability compared was calculated and data were expressed as a mean ± standard deviation (SD) of the experiments and obtained in triplicate (n = 3).
(In general: Formazan colour is commonly taken as a measure of viable cells.)

Series [4] relates to MCF-7 cells. In words: Apoptosis assay (Annexin V-FITC/PI flow cytometry), MCF-7. It is filed as cell-based, human. Here is the method:
(§8) Two reference concentrations, 5 μM and 50 μM, and two distinct treatment durations, 24 and 48 h, were employed to assess the influence of the test compounds on apoptosis in both normal and tumor cells. […] HUVEC cells were exposed to both drugs.
(§9) The apoptosis assay was performed according to the manufacturer’s instructions using the Annexin V-FITC kit (BD Biosciences, San Jose, CA, USA). Cells untreated and treated with the experimental compound were suspended in a cold binding buffer. The percentages of apoptotic cells were determined by double staining with Annexin V-FITC/PI. In each tube was added 400 μL of Annexin V binding buffer and the 5000 cells/sample for 15 min in the dark at room temperature. The cells were analyzed using a FACSCantoII flow-cytometer (Becton Dickinson—BD, La Jolla, CA, USA). The analysis was performed using DIVA 6.2 software to discriminate viable cells (FITC-PI-) from necrotic cells (FITC + PI+), and early apoptosis (FITC + PI) from late apoptosis.

For series [5], the system named is MCF-7. More on the design: method as in earlier work. Conditions: ref 16 (Yang et al.); cited from earlier work.
For series [6], the system named is MCF-7 cells. In words: MTS cell viability assay, MCF-7 cells. It is filed as cell-based, human. Conditions: Homo sapiens. As for the experimental part:
as §4, §5, §6, §7

The subject of series [7] is HUVEC cells. In words: Apoptosis assay (Annexin V-FITC/PI flow cytometry), HUVEC. It is filed as cell-based, human. As for the experimental part: as §8, §9
For series [8], the system named is LoVo cells. Put plainly: Apoptosis assay (Annexin V-FITC/PI flow cytometry), LoVo. The class given is cell-based, human. As for the experimental part:
as §8, §9

Series [9] concerns LoVo cells. In words: MTS cell viability assay, LoVo cells. It is filed as cell-based, human. Conditions: Homo sapiens, LoVo. Here is the method: as §4, §5, §6, §7

As to `O=C(Nc1nnc(-c2ccccc2)s1)c1ccccc1` [3b, N-(5-Phenyl-1,3,4-thiadiazol-2-yl)benzamide], the figures for the “Maximum Average L% (lethality)” value in [1] (24 h) and in series [1] (48 h) were 5% and 45%, respectively. In [2], the LC50 at 48 h is 228 µM. Also, the concentration for half-maximal inhibition (IC50) in series [3] (read-out: IC50 (48 h) HUVEC, 48 h exposure) is above 400 µM; in series [3] (24 h exposure, read-out: IC50 (24 h) HUVEC), above 400 µM; in series [5], 5.87 µM; in [6] (MCF7, read-out: IC50 (48 h) MCF-7, 48 h exposure), above 400 µM; in series [6] (MCF7, 24 h exposure, read-out: IC50 (24 h) MCF-7), above 400 µM; in series [9] (read-out: IC50 (48 h) LoVo, 48 h exposure) it was 62.5 µM. Moreover, the IC50 in series [9] (24 h exposure, read-out: IC50 (24 h) LoVo) amounted to 174 µM. Also, the figures for the “Total Apoptosis (%) 24 h MCF-7” value in series [4] (5 μM) and in series [4] (50 μM) were 19.2% and 16.4%, respectively. The results for the “Total Apoptosis (%) 48 h MCF-7” value in series [4] (5 μM) and in series [4] (50 μM) were 43.7% and 41.3%, respectively. Further, the “Total Apoptosis (%) 24 h HUVEC” value in series [7] (5 μM) was found to be 17.8%; in series [7] (50 μM) it was 17.0%. For the same molecule, the “Total Apoptosis (%) 48 h HUVEC” value is recorded as 15.3% in [7] (5 μM) and 15.9% in series [7] (50 μM). For the same molecule, the “Total Apoptosis (%) 24 h LoVo” value in series [8] (5 μM) stood at 12.5%; in series [8] (50 μM) it was 12.6%. For the same molecule, the “Total Apoptosis (%) 48 h LoVo” value in series [8] (5 μM) is on record as 22.2%; in [8] (50 μM), 20.9%. Also, in [9] (24 h, 200 μM, read-out: viability of LoVo tumor cells), the viability at 200 µM was below 50%.
